Entries after “also recorded” stand apart in the source; their conditions may differ.
Tested on: DNase I
Experiment: DNase I-mediated degradation of DNA-histone structures (degradation modifier assay)
Assay type: biochemical, bovine
Conditions: LL-37 approx. 0.5, 5 or 50 μM; total Sytox Green fluorescence; relative to structures lacking LL-37 treated with DNase I
Experimental: Time-lapse microscopy and microplate photometry were utilized to measure the overall rate of degradation, and DNA-histone structures were treated with multiple concentrations of DNase I to verify the dose-dependency of this rate (FIG. 3).
1 mg/ml DNase I (MW 31 kDa) was prepared in 10 mM Tris-HCl, 10 mM CaCl2, pH 7.5 (Tris buffer). Each well containing DNA-histone structures (as previously described) was washed 3 times with 150 μl of Tris buffer, and all solutions within each well were removed. 200 μL of the DNase I solution was then added to each well, and time-lapse fluorescent images of each well were acquired.
1 mg/ml LL-37 (MW 4.49 kDa) and 2 mg/ml histones (both in PBS) were added to a solution of 20% w/w PEG/PBS such that the final concentration of histones was approximately 1 mg/ml, and the final concentration of LL-37 in each solution was approximately 0.5 μM, 5 μM, or 50 μM. […]
After complete removal of the solutions in each well, 150 μL of DNase I solution was added to each well. Time-lapse images or measurements of total fluorescence were acquired at a rate of one measurement per minute.

For LL-37, the “overall rate of DNase I-mediated degradation of DNA-histone structures” value was “dose-dependent decrease in the overall rate of DNase I-mediated degradation; also recorded: inhibit the rate of DNase I mediated degradation”.

From patent US20240369550A1, “MACROMOLECULAR STRUCTURES AND USES THEREOF” (The Regents of the University of Michigan, priority 2015, published 2024)
